Measurements taken from patent US12637427B2, “ALDH-2 inhibitor compounds and methods of use” (Amygdala Neurosciences, Inc., priority 2022, dated 2026).

Experiments:
MAO-A = target: T1, MAO-A (Homo sapiens, UniProt P21397); assay: MAO-A inhibition assay; assay type: biochemical; settings: 20 min pre-incubation; 10 μM = highest concentration tested; read-out: Enzymatic Assays IC50 MAO-A
T1 sequence (P21397 1-527): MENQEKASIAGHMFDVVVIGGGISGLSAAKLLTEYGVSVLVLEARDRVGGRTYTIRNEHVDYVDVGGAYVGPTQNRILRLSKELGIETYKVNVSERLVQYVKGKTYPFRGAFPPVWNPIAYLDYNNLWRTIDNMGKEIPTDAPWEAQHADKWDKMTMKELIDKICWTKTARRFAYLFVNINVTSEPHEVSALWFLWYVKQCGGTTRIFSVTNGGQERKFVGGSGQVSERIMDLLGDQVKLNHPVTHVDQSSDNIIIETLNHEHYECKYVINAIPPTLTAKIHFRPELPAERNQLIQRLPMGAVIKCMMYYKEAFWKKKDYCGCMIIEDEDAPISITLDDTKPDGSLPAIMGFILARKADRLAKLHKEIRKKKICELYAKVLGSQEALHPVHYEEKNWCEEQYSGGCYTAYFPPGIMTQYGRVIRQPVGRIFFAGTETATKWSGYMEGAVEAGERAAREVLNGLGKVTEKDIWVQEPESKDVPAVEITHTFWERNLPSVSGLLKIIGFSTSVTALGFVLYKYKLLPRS
Method: (§1) D. MAO-A and MAO-B inhibition assays: MAO assays included luminogenic MAO substrate, reaction buffers, Luciferin Detection, and a reconstitution buffer with esterase. The MAO reaction mixture used in the assay included microsome contained MAO-A (2 μg) or MAO-B (10 μg), 160 μM substrate for MAO-A or 16 μM substrate for MAO-B, MAO-A buffer (100 mM Hepes buffer, pH 7.5, 5% glycerol) or MAO-B buffer (100 mM Hepes, pH 7.5, 5% glycerol, 10% dimethyl sulfoxide) in a final volume of 30 μL. After 20 minutes of pre-incubation of the MAO-A or MAO-B enzyme with the test ALDH-2 inhibitor compound, the reaction was initiated by adding enzyme substrate and the […] reaction was allowed to proceed for 60 minutes. Reconstituted Luciferin Detection Reagent (30 μL) was then added is added to simultaneously stop the MAO reaction and convert the methyl ester derivative to luciferin and produce light. The amount of light produced is directly proportional to the activity of MAO. The mixtures were further incubated for 20 minutes and activity of the enzyme was determined using Perkin-Elmer Envision Reader.

MAO-B = target: T2, MAO-B (Homo sapiens, UniProt P27338); assay: MAO-B inhibition assay; assay type: biochemical; settings: 20 min pre-incubation; 10 μM = highest concentration tested; read-out: Enzymatic Assays IC50 MAO-B
T2 sequence (P27338 1-520): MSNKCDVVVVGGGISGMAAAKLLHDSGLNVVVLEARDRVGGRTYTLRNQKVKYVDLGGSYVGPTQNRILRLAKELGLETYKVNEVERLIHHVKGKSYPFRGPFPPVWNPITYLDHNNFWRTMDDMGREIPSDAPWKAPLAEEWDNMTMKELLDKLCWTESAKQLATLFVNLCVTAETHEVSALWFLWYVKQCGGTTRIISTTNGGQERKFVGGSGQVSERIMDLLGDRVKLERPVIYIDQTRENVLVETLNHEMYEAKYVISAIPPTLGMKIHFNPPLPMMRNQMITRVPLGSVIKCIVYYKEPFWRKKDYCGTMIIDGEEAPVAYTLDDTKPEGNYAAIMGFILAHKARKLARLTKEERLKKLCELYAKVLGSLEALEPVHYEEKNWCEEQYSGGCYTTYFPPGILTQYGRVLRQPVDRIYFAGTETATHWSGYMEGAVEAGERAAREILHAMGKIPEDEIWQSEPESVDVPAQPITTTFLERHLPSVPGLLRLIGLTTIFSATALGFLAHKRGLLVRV
Method: as §1

Row | Compound | IC50 (MAO-A) | IC50 (MAO-B)
1 | Cc1nccc(Br)c1C(=O)NCc1ccc(-c2[nH]c(=O)ccc2F)cc1 [(1g), 4-Bromo-N-(4-(3-fluoro-6-oxo-1,6-dihydropyridin-2-yl)benzyl)-2-methylnicotinamide] | > 10 µM | > 10 µM
2 | Cc1cccc(Cl)c1C(=O)NCc1ccc(-c2cccc(=O)[nH]2)cc1 [(1a), 2-Chloro-6-methyl-N-(4-(6-oxo-1,6-dihydropyridin-2-yl)benzyl)benzamide] | > 10 µM | > 10 µM
3 | O=C(NCc1ccc(-c2cccc(=O)[nH]2)cc1)c1ccccc1Cl [(1b), 2-Chloro-N-(4-(6-oxo-1,6-dihydropyridin-2-yl)benzyl)benzamide] | > 10 µM | > 10 µM
4 | Cc1nccc(Cl)c1C(=O)NCc1ccc(-c2cccc(=O)[nH]2)cc1 [(1c), 4-Chloro-2-methyl-N-(4-(6-oxo-1,6-dihydropyridin-2-yl)benzyl)nicotinamide] | > 10 µM | > 10 µM
5 | Cc1cccc(Cl)c1C(=O)NCc1ccc(-c2cccc(=O)[nH]2)nc1 [(1k), 2-Chloro-6-methyl-N-((6′-oxo-1′,6′-dihydro-[2,2′-bipyridin]-5-yl)methyl)benzamide] | > 10 µM | > 10 µM
6 | O=C(NCc1ccc(-c2cccc(=O)[nH]2)nc1)c1ccccc1Cl [(1l), 2-chloro-N-((6′-oxo-1′,6′-dihydro-[2,2′-bipyridin]-5-yl)methyl)benzamide] | > 10 µM | > 10 µM
